# According to patent US10829458B2 (Araxes Pharma LLC, priority 2015, dated 2020):
# Target: T1, KRAS G12C 1-169, his-tagged protein, GDP-loaded (Homo sapiens, UniProt P01116, G12C)
# T1 construct: KRAS G12C 1-169, his-tagged protein, GDP-loaded
# Assay: Biochemical assay: covalent modification of KRAS G12C measured by mass spectrometry (RapidFire/TOF or Q-Exactive)
# Settings: covalent binding to KRAS G12C; compounds of structure (I)
# Procedure, shortened: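 Covalent adduct formation read by intact-mass spectrometry (TOF or Q Exactive Plus, charge envelopes deconvoluted into modified and unmodified species) after formic acid quench. Reactions contained 2 μM GDP-bound KRAS G12C 1-169 (his-tag) in Hepes/NaCl/MgCl2 buffer plus 10, 30 or 100 μM final compound, held 30 min, 2 h or 24 h at room temperature.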
row,SMILES,Binding %
1,"C=CC(=O)N1CCN(c2nc(N3CC(N4CCN(C5CC5)CC4)C3)nc3c(F)c(-c4c(O)cccc4F)c(Cl)cc23)CC1 [Example I-166, 1-(4-(6-chloro-2-(3-(4-cyclopropyl-piperazin-1-yl)azetidin-1-yl)-8-fluoro-7-(2-fluoro-6-hydroxyphenyl)quinazolin-4-yl)piperazin-1-yl) prop-2-en-1-one]",++ (++ indicates binding activity from 50 to 90%)
2,"C=CC(=O)N1CCN(c2nc(CCNc3ncccn3)nc3c(F)c(-c4c(O)cccc4F)c(Cl)cc23)CC1 [Example I-135, 1-(4-(6-chloro-8-fluoro-7-(2-fluoro-6-hydroxyphenyl)-2-(2-(pyrimidin-2-ylamino)ethyl)quinazolin-4-yl)piperazin-1-yl) prop-2-en-1-one]",+++ (+++ indicates binding activity greater than 90%)
3,"C=CC(=O)N1CCN(c2nc(OCCN3CCOCC3)nc3c(F)c(-c4cc(O)cc5ccccc45)c(Cl)cc23)CC1 [Example I-14, 1-(4-(6-chloro-8-fluoro-7-(3-hydroxy-naphthalen-1-yl)-2-(2-morpholino-ethoxy)quinazolin-4-yl)piperazin-1-yl)prop-2-en-1-one]",+++ (+++ indicates binding activity greater than 90%)
4,C=CC(=O)N1CCN(c2nc(OC3CCN(C4CC4)CC3)nc3c(F)c(-c4c(C)ccc5[nH]ncc45)c(Cl)cc23)CC1 [Example I-194],+ (+ indicates binding activity up to 50%)
5,"C=CC(=O)N1CCN(c2nc(OC3CCN(C4CC4)CC3)nc3c(F)c(-c4c(O)cccc4F)c(Cl)cc23)CC1 [Example I-94, 1-(4-(6-chloro-2-(1-cyclopropyl-piperidin-4-yloxy)-8-fluoro-7-(2-fluoro-6-hydroxyphenyl)quinazolin-4-yl)piperazin-1-yl)prop-2-en-1-one]",+++ (+++ indicates binding activity greater than 90%)
6,"C=CC(=O)N1CCN(c2nc(P(C)(C)=O)nc3c(F)c(-c4c(O)cccc4F)c(Cl)cc23)CC1 [Example I-205, 1-(4-(6-chloro-2-(dimethyl-phosphoryl)-8-fluoro-7-(2-fluoro-6-hydroxyphenyl)quinazolin-4-yl)piperazin-1-yl) prop-2-en-1-one]",++ (++ indicates binding activity from 50 to 90%)
7,"C=CC(=O)N1CCN(c2nc(NC3CCN(C(C)(C)C)CC3)nc3c(F)c(-c4c(C)ccc5[nH]ncc45)c(Cl)cc23)CC1 [Example I-177, 1-(4-(2-((1-(tert-butyl)piperidin-4-yl)amino)-6-chloro-8-fluoro-7-(5-methyl-1H-indazol-4-yl)quinazolin-4-yl)piperazin-1-yl) prop-2-en-1-one]",+++ (+++ indicates binding activity greater than 90%)
8,"C=CC(=O)N1CCN(c2nc(NC3CCN(CC4CC4)CC3)nc3c(F)c(-c4c(C)ccc5[nH]ncc45)c(Cl)cc23)CC1 [Example I-128, 1-(4-(6-chloro-2-(1-(cyclo-propylmethyl)piperidin-4-ylamino)-8-fluoro-7-(5-methyl-1H-indazol-4-yl)quinazolin-4-yl)piperazin-1-yl) prop-2-en-1-one]",+++ (+++ indicates binding activity greater than 90%)
9,"C=CC(=O)N1CCN(c2nc(NC3CCN(c4ncccn4)CC3)nc3c(F)c(-c4c(O)cccc4F)c(Cl)cc23)CC1 [Example I-190, 1-(4-(6-chloro-8-fluoro-7-(2-fluoro-6-hydroxyphenyl)-2-((1-(pyrimidin-2-yl)piperidin-4-yl)amino)quinazolin-4-yl)piperazin-1-yl) prop-2-en-1-one]",+ (+ indicates binding activity up to 50%)
10,"C=CC(=O)N1CCN(c2nc(C(=O)N3CCN(C)CC3)nc3c(F)c(-c4c(O)cccc4F)c(Cl)cc23)CC1 [Example I-90, 1-(4-(6-chloro-8-fluoro-7-(2-fluoro-6-hydroxyphenyl)-2-(4-methyl-piperazine-1-carbonyl)quinazolin-4-yl)piperazin-1-yl)prop-2-en-1-one]",+++ (+++ indicates binding activity greater than 90%)
11,"C=CC(=O)N1CCN(c2nc(OCCN3CCOCC3)nc3c(F)c(-c4ccccc4C(C)C)c(Cl)cc23)CC1 [Example I-37, 1-(4-(6-chloro-8-fluoro-7-(2-isopropylphenyl)-2-(2-morpholino-ethoxy)quinazolin-4-yl)piperazin-1-yl)prop-2-en-1-one]",+++ (+++ indicates binding activity greater than 90%)
12,"C=CC(=O)N1CCN(c2nc(NC3CCS(=O)(=O)CC3)nc3c(F)c(-c4c(O)cccc4F)c(Cl)cc23)CC1 [Example I-66, 1-(4-(6-chloro-8-fluoro-7-(2-fluoro-6-hydroxyphenyl)-2-(tetrahydro-2H-dioxothio-pyran-4-ylamino)quinazolin-4-yl)piperazin-1-yl) prop-2-en-1-one]",+++ (+++ indicates binding activity greater than 90%)
13,"C=CC(=O)N1CCN(c2nc(OCc3cccc(C)n3)nc3c(F)c(-c4c(O)cccc4F)c(Cl)cc23)CC1 [Example I-99, 1-(4-(6-chloro-8-fluoro-7-(2-fluoro-6-hydroxyphenyl)-2-((6-methyl-pyridin-2-yl)methoxy)quinazolin-4-yl)piperazin-1-yl)prop-2-en-1-one]",+++ (+++ indicates binding activity greater than 90%)
14,"C=CC(=O)N1CCN(c2nc(OCCN3CC(F)(F)C3)nc3c(F)c(-c4c(C)ccc5[nH]ncc45)c(Cl)cc23)CC1 [Example I-145, 1-(4-(6-chloro-2-(2-(3,3-difluoro-azetidin-1-yl)ethoxy)-8-fluoro-7-(5-methyl-1H-indazol-4-yl)quinazolin-4-yl)piperazin-1-yl) prop-2-en-1-one]",+++ (+++ indicates binding activity greater than 90%)
15,"CN(C)C/C=C/C(=O)N1CCN(c2nc(OCCN3CCOCC3)nc3c(F)c(-c4cc(O)cc5ccccc45)c(Cl)cc23)CC1 [Example I-65, (E)-1-(4-(6-chloro-8-fluoro-7-(3-hydroxy-naphthalen-1-yl)-2-(2-morpholino-ethoxy)quinazolin-4-yl)piperazin-1-yl)-4-(dimethyl-amino)but-2-en-1-one]",+++ (+++ indicates binding activity greater than 90%)
16,"C=CC(=O)N1CCN(c2nc(OCC3OCCO3)nc3c(F)c(-c4c(C)ccc5[nH]ncc45)c(Cl)cc23)CC1 [Example I-164, 1-(4-(2-((1,3-dioxolan-2-yl)methoxy)-6-chloro-8-fluoro-7-(5-methyl-1H-indazol-4-yl)quinazolin-4-yl)piperazin-1-yl) prop-2-en-1-one]",++ (++ indicates binding activity from 50 to 90%)
17,"C=CC(=O)N1CCN(c2nc(NC3CN(C(C)C)C3)nc3c(F)c(-c4c(O)cccc4F)c(Cl)cc23)CC1 [Example I-174, 1-(4-(6-chloro-8-fluoro-7-(2-fluoro-6-hydroxyphenyl)-2-((1-isopropyl-azetidin-3-yl)amino)quinazolin-4-yl)piperazin-1-yl) prop-2-en-1-one]",+ (+ indicates binding activity up to 50%)
18,"C=CC(=O)N1CCN(c2nc(OCCN3CC(F)(F)C3)nc3c(F)c(-c4c(O)cccc4F)c(Cl)cc23)CC1 (atropisomer, axis not shown) [Example I-126, (R)-1-(4-(6-chloro-2-(2-(3,3-difluoro-azetidin-1-yl)ethoxy)-8-fluoro-7-(2-fluoro-6-hydroxyphenyl)quinazolin-4-yl)piperazin-1-yl) prop-2-en-1-one]",+ (+ indicates binding activity up to 50%)
19,"C=C(Cl)C(=O)N1CCN(c2nc(OCCN3CCOCC3)nc3c(F)c(-c4cc(O)cc5ccccc45)c(Cl)cc23)CC1 [Example I-73, 2-chloro-1-(4-(6-chloro-8-fluoro-7-(3-hydroxy-naphthalen-1-yl)-2-(2-morpholino-ethoxy)quinazolin-4-yl)piperazin-1-yl)prop-2-en-1-one]",+++ (+++ indicates binding activity greater than 90%)
20,"C=CC(=O)N1CCN(c2nc(N3CC(N4CCC(F)(F)CC4)C3)nc3c(F)c(-c4c(O)cccc4F)c(Cl)cc23)CC1 [Example I-23, 1-(4-(6-chloro-2-(3-(4,4-difluoro-piperidin-1-yl)azetidin-1-yl)-8-fluoro-7-(2-fluoro-6-hydroxyphenyl)quinazolin-4-yl)piperazin-1-yl) prop-2-en-1-one]",++ (++ indicates binding activity from 50 to 90%)

# Same assay, conditions: covalent binding to KRAS G12C; compounds of structure (II)
row,SMILES,Binding %
1,"C=CC(=O)Nc1cccc(-c2ncnc3c(F)c(-c4c(O)cccc4F)c(Cl)cc23)c1 [II-11, N-(3-(6-chloro-8-fluoro-7-(2-fluoro-6-hydroxyphenyl)quinazolin-4-yl)phenyl)acrylamide]",+ (+ indicates binding activity up to 50%)

# Same assay, conditions: covalent binding to KRAS G12C; compounds of structure (III)
row,SMILES,Binding %
1,"C=CC(=O)N1[C@H](C)CN(c2ncnc3c(F)c(-c4c(C)ccc5cn[nH]c45)c(Cl)cc23)C[C@@H]1C [III-35, 1-((2S,6R)-4-(6-chloro-8-fluoro-7-(6-methyl-1H-indazol-7-yl)quinazolin-4-yl)-2,6-dimethyl-piperazin-1-yl)prop-2-en-1-one]",+++ (+++ indicates binding activity greater than 90%)
2,"C=CC(=O)N1CCN(c2ncnc3c(F)c(-c4c(O)cccc4F)c(Cl)cc23)CC1C (stereo not shown) [III-5, 1-(4-(6-chloro-8-fluoro-7-(2-fluoro-6-hydroxy-phenyl)quinazolin-4-yl)-2-methyl-piperazin-1-yl)prop-2-en-1-one]",++ (++ indicates activity from 50% to 90%)
3,"C=CC(=O)N1CCN(c2ncnc3c(F)c(-c4c(O)cccc4F)c(Cl)cc23)C2CC21 (stereo not shown) [III-16, 1-(5-(6-chloro-8-fluoro-7-(2-fluoro-6-hydroxy-phenyl)quinazolin-4-yl)-2,5-diazabicyclo [4.1.0.]heptan-2-yl)prop-2-en-1-one]",+ (+ indicates binding activity up to 50%)
4,"C=CC(=O)N1C[C@H](C)N(c2ncnc3c(F)c(-c4c(O)cccc4F)c(Cl)cc23)C[C@H]1C [III-1, 1-((2R,5S)-4-(6-chloro-8-fluoro-7-(2-fluoro-6-hydroxy-phenyl)quinazolin-4-yl)-2,5-dimethyl-piperazin-1-yl)prop-2-en-1-one]",++ (++ indicates activity from 50% to 90%)
